According to patent US4275071A, “Imidazole derivatives” (Recordati S.A., priority 1978, dated 1981):
Like-named read-outs stand apart in the source and are kept apart here.

Legend:
[1] = system: maximum electroshock seizure in mice; experiment: Maximum electroshock seizure test (MES) in the mouse; assay type: in vivo, mouse (albino race); conditions: read-out: ED50 - MES
[2] = system: pentylenetetrazol (Metrazol) seizure in mice; experiment: Subcutaneous pentylenetetrazol (Metrazol) seizure threshold test (MET) in the mouse; assay type: in vivo; conditions: 1 h, read-out: ED50 - MET
in vivo = conditions: mouse, in vivo
From the text: (§1) As to MET, it is known that pentylene-tetrazol (metrazol) administered subcutaneously to mice in a loose fold of skin on the back of the neck, produces seizures. […] Failure to observe even a threshold seizure is defined as protection. In the same table the LD50 values (lethal dose 50), evaluated in the mouse both I.p. and per os, are given.

mouse = experiment: in vivo; conditions: i.p.
From the text: as §1

[3] = ip, mouse, i.p., electroshock 60 Hz, 0.2 sec, 25 mA, 30 or 60 minutes after administration
[4] = po, mouse, os, electroshock 60 Hz, 0.2 sec, 25 mA, 30 or 60 minutes after administration
[5] = ip, mouse, i.p., pentylenetetrazol 130 mg/Kg s.c. 30 minutes after administration, observed 60 minutes
[6] = po, mouse, os, pentylenetetrazol 130 mg/Kg s.c. 60 minutes after administration, observed 60 minutes

Structure (SMILES) | ED50 [1, 3] [mg/kg] | ED50 [1, 4] [mg/kg] | ED50 [2, 5] [mg/kg] | ED50 [2, 6] [mg/kg] | LD50 (in vivo; po) [mg/kg] | ED50 ([2]; Mus musculus, ip) [mg/kg] | ED50 ([2]; Mus musculus, po) [mg/kg] | ED50 ([1]; Mus musculus, ip) [mg/kg] | ED50 ([1]; Mus musculus, po) [mg/kg] | LD50 (mouse) [mg/kg] | LD50 (in vivo; ip) [mg/kg]
O=C1NC(=O)C(c2ccccc2)(c2ccccc2)N1 [Diphenylidantoin, diphenylidantoin, reference compound] | 6 | 10 | 6 | 5 | – | – | – | – | – | – | –
O=C(OC(Cn1ccnc1)c1ccc(-c2ccccc2)cc1)c1ccccc1 (stereo not drawn) [Compound 1575, 4-[1"-benzoyloxy-2"-(N-imidazolyl)-ethyl]-biphenyl] | 66 | 135 | – | – | 1300 | 27 | 62 | – | – | – | –
O=C(CCn1ccnc1)c1ccc(CCc2ccccc2)cc1 [Compound 1585] | – | – | – | – | – | 25 | 25 | 25 | 100 | – | –
O=C(CCn1ccnc1)c1ccc(-c2ccccc2)cc1 [Compound 1490, 4-[3"-(N-imidazolyl)-propionyl]-biphenyl] | – | – | – | – | – | 15 | 30 | 60 | 36 | 360 | –
CCC1(c2ccccc2)C(=O)NC(=O)NC1=O [Phenobarbital, phenobarbital, reference compound] | – | – | – | – | 245 | 9 | 10 | 14 | 18 | – | 242
Cc1c(C)c([N+](=O)[O-])c(C)c(C)c1C(=O)Cn1ccnc1 [Compound 1429, 3-(N-imidazolyl-acetyl)-6-nitro-durene] | 75 | 54 | – | – | – | 100 | 52 | – | – | – | –
CC(C)CCSc1ccc(C(O)Cn2ccnc2)cc1 (stereo not drawn) [Compound 1455] | 15 | 31 | – | – | – | 19 | 22 | – | – | – | 420
CC(C)(C(O)c1ccc(Sc2ccccc2)cc1)n1ccnc1 (stereo not drawn) [Compound 1541] | – | – | – | – | – | 23 | 135 | 50 | 190 | – | –
CC(C(O)c1ccc(Sc2ccccc2)cc1)n1ccnc1 (stereo not drawn) [Compound 1540] | – | – | – | – | – | 39 | 150 | 155 | 150 | – | –
Cc1cc(C)c(C)c(C(=O)Cn2ccnc2)c1C [Compound 1323, 3-(N-imidazolyl-acetyl)-durene] | – | – | – | – | 1.17 | 19 | 28 | 18 | 33 | – | 420
Cc1c(C)c(C(=O)Cn2ccnc2)c(C)c(C)c1Br [Compound 1457, 3-(N-imidazolyl-acetyl)-6-bromo-durene] | – | – | – | – | – | 90 | 57 | 180 | 190 | – | –
Cc1c(C)c(C(O)Cn2ccnc2)c(C)c(C)c1Cl (stereo not drawn) [Compound 1515, 3-[1'-hydroxy-2'-(N-imidazolyl)-ethyl]-6-chloro-durene] | 300 | 150 | – | – | – | 150 | 75 | – | – | – | –
OC(Cn1ccnc1)c1ccc(CCc2ccccc2)cc1 (stereo not drawn) [15/1533, 4-[1"-hydroxy-2"-(N-imidazolyl)-ethyl]-bibenzyl] | 10 | 12 | – | – | – | 9 | 10 | – | – | – | –
Cc1c(C)c(C(=O)Cn2ccnc2)c(C)c(C)c1Cl [Compound 1517, 3-(N-imidazolyl-acetyl)-6-chloro-durene] | 80 | 80 | – | – | – | 150 | 150 | – | – | – | –
O=C(Cn1ccnc1)c1ccc(C2CCCCC2)cc1 [15/1803] | – | – | – | – | – | 18 | 32 | 66 | 92 | – | –
O=C(Cn1ccnc1)c1ccc(CCc2ccccc2)cc1 [Compound 1532, 4-(N-imidazolyl-acetyl)-bibenzyl] | – | – | – | – | 1.55 | 11 | 17 | 11 | 37 | 300 | –
CC(C)(C(=O)c1ccc(-c2ccccc2)cc1)n1ccnc1 [Compound 1488, 4-[2"-methyl-2"-(N-imidazolyl)-propionyl]-biphenyl] | – | – | – | – | 1.87 | 25 | 37 | 30 | 34 | – | –
OC(Cn1ccnc1)c1ccc(C2CCCCC2)cc1 (stereo not drawn) [Compound 1534, 1-[1'-hydroxy-2'-(N-imidazolyl)-ethyl]-4-cyclohexyl-benzene] | 50 | 60 | 25 | 27 | 2700 | – | – | – | – | – | 490
C(=Cn1ccnc1)c1ccc(-c2ccccc2)cc1 [Compound 1598, 4-(N-imidazolyl-vinylene)-biphenyl] | – | – | – | – | – | 69 | 80 | 185 | 145 | – | –
O=C(Cn1ccnc1)c1ccc(-c2ccccc2)cc1 [Compound 1341, 4-(N-imidazolyl-acetyl)-biphenyl] | – | – | – | – | – | 28 | 10 | 54 | 76 | – | –
Cc1c(C)c(C)c(C(O)Cn2ccnc2)c(C)c1C (stereo not drawn) [Compound 1516, 3-[1'-hydroxy-2'-(N-imidazolyl)-ethyl]-6-methyl-durene] | 46 | 57 | 13 | 35 | 1800 | – | – | – | – | – | 655
Cc1c(C)c(C)c(C(=O)Cn2ccnc2)c(C)c1C [Compound 1518, 3-(N-imidazolyl-acetyl)-6-methyl-durene] | 13 | 45 | – | – | 1800 | 23 | 50 | – | – | – | –
CC(C)(C(O)c1ccc(-c2ccccc2)cc1)n1ccnc1 (stereo not drawn) [Compound 1492] | 24 | 27 | 10 | 14 | 2400 | – | – | – | – | – | 420
OC(Cn1ccnc1)c1ccc(-c2ccccc2)cc1 (stereo not drawn) [Compound 1342, 4-[1"-hydroxy-2"-(N-imidazolyl)-ethyl]-biphenyl] | – | – | – | – | – | 25 | 20 | 25 | 25 | – | 1.15
